The values that follow come from ChEMBL document CHEMBL1147471, “Selecting against S1P3 enhances the acute cardiovascular tolerability of 3-(N-benzyl)aminopropylphosphonic acid S1P receptor agonists” (Bioorg Med Chem Lett, 2004).

Series [1] can be described thus: in vivo. Conditions: rat, plasma, iv, 1 mg/kg.
Series [2] can be described thus: in vivo. To be noted: rat, iv, 1 mg/kg.
Series [3] can be described thus: in vivo. To be noted: rat, iv, 1 mg/kg. The source holds these as a separate data set.

Broadly, the clearance is a measure of how efficiently the substance is removed, as volume per time. A low value points to inefficient removal. The term Vd denotes the apparent volume that relates the amount in the body to the concentration in plasma or blood. The term half-life denotes the time needed for the level to fall by half in the phase considered. A high value points to slow decline. Compound `CCCCCCCCOc1c(Br)cc(CNCCCP(=O)(O)O)cc1OC` displayed a clearance in “in vivo [1]” of 9.2 mL/min/kg. Also, in “in vivo [2]”, the Vd stood at 1.4 L/kg. Further, the half-life in the series “in vivo [3]” is 2.1 h.
